In brackets after ≈: the same amount, converted by molar mass.
Experiment: Cytotoxicity against wild type mouse IC2 cells after 48 hrs by MTT assay
Conditions: IC2, 48 h
Compound CNC1=CC(=O)c2ccncc2C1=O [CAULIBUGULONE A] has an IC50 of 0.34 µg/mL (≈ 1.81 µM). CNC1=C(Br)C(=O)c2ccncc2C1=O [CAULIBUGULONE B] gave an IC50 of 0.28 µg/mL (≈ 1.05 µM). For CNC1=C(Cl)C(=O)c2ccncc2C1=O [CAULIBUGULONE C], the IC50 was 0.22 µg/mL (≈ 0.988 µM). O=C1C=C(NCCO)C(=O)c2cnccc21 [CAULIBUGULONE D] showed an IC50 of 1.67 µg/mL (≈ 7.65 µM). In the case of CNC1=CC(=N)c2ccncc2C1=O [CAULIBUGULONE E], the IC50 was 0.03 µg/mL (≈ 0.16 µM). Compound CNC1=C/C(=N\CCO)c2ccncc2C1=O [CAULIBUGULONE F] has an IC50 of 0.1 µg/mL (≈ 0.432 µM).

— ChEMBL document CHEMBL1146460, “Caulibugulones A-F, novel cytotoxic isoquinoline quinones and iminoquinones from the marine bryozoan Caulibugula intermis” (J Nat Prod, 2004)
